What was measured:
Test in all cases: relative viability (nuclei count vs DMSO), 5 days (fraction); higher = more cells survive
PC-14 = tested on: PC-14
Method in brief: (§1)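 Nuclei were stained with Hoechst during a one-step fixation (final 0.05% Triton X-100, 1% formaldehyde, 1 ug/ml Hoechst) carried out 5 days after dosing, then counted on 4× images. The cells, lung cancer lines in 1536-well plates, had been dosed by pin tool the day after seeding with one drug alone or a fixed anchor-drug dose plus five library-drug doses (not always all listed) in √10 steps. Relative viability is the nuclei count in treated wells divided by that in vehicle wells, and each value is the median of duplicate plates.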

LK-2 = tested on: LK-2
Method in brief: as §1

NCI-H2009 = tested on: NCI-H2009
Method in brief: as §1

EKVX = tested on: EKVX
Method in brief: as §1

NCI-H1650 = tested on: NCI-H1650
Method in brief: as §1

COR-L 105 = tested on: COR-L 105
Method in brief: as §1

NCI-H727 = tested on: NCI-H727
Method in brief: as §1

NCI-H2170 = tested on: NCI-H2170
Method in brief: as §1

NCI-H3122 = tested on: NCI-H3122
Method in brief: as §1

201T = tested on: 201T
Method in brief: as §1

COR-L23 = tested on: COR-L23
Method in brief: as §1

NCI-H1437 = tested on: NCI-H1437
Method in brief: as §1

ABC-1 = tested on: ABC-1
Method in brief: as §1

NCI-H1666 = tested on: NCI-H1666
Method in brief: as §1

NCI-H838 = tested on: NCI-H838
Method in brief: as §1

HCC-366 = tested on: HCC-366
Method in brief: as §1

HARA = tested on: HARA
Method in brief: as §1

NCI-H441 = tested on: NCI-H441
Method in brief: as §1

SW 900 = tested on: SW 900
Method in brief: as §1

BEN = tested on: BEN
Method in brief: as §1

LU99A = tested on: LU99A
Method in brief: as §1

NCI-H661 = tested on: NCI-H661
Method in brief: as §1

CAL-12T = tested on: CAL-12T
Method in brief: as §1

Work on C=C1C(=O)O[C@@H](CCCCCCCC)[C@@H]1C(=O)O [C-75] + COc1cccc2cc(-c3nc([C@H]4CC[C@H](C(=O)O)CC4)n4ncnc(N)c34)[nH]c12 [OSI-027] (partner 0.5 µM) yielded a relative viability (PC-14; first compound 0.08 µM) of 0.774, a relative viability (PC-14; first compound 0.253 µM) of 0.958 and a relative viability (PC-14; first compound 0.8 µM) of 0.687. The relative viability (PC-14; first compound 2.53 µM) was 0.767, the relative viability (PC-14; first compound 8 µM) was 0.856 and the relative viability (LK-2; first compound 0.08 µM) was 0.209. The relative viability (LK-2; first compound 0.253 µM) was 0.212, the relative viability (LK-2; first compound 0.8 µM) was 0.222 and the relative viability (LK-2; first compound 2.53 µM) was 0.16. For the same compound, the relative viability (LK-2; first compound 8 µM) was 0.145, the relative viability (NCI-H2009; first compound 0.08 µM) was 0.675 and the relative viability (NCI-H2009; first compound 0.253 µM) was 0.686. It also gave a relative viability (NCI-H2009; first compound 0.8 µM) of 0.567, a relative viability (NCI-H2009; first compound 2.53 µM) of 0.545 and a relative viability (NCI-H2009; first compound 8 µM) of 0.426. It also gave a relative viability (EKVX; first compound 0.08 µM) of 0.699, a relative viability (EKVX; first compound 0.253 µM) of 0.979 and a relative viability (EKVX; first compound 0.8 µM) of 0.651. The relative viability (EKVX; first compound 8 µM) was 0.68, the relative viability (NCI-H1650; first compound 0.08 µM) was 0.743 and the relative viability (NCI-H1650; first compound 0.253 µM) was 0.856. It also gave a relative viability (NCI-H1650; first compound 2.53 µM) of 0.442, a relative viability (NCI-H1650; first compound 8 µM) of 0.851 and a relative viability (COR-L 105; first compound 0.08 µM) of 0.709. The relative viability (COR-L 105; first compound 0.253 µM) was 0.757, the relative viability (COR-L 105; first compound 0.8 µM) was 0.648 and the relative viability (COR-L 105; first compound 2.53 µM) was 0.515. The relative viability (COR-L 105; first compound 8 µM) was 0.696, the relative viability (NCI-H727; first compound 0.08 µM) was 0.893 and the relative viability (NCI-H727; first compound 0.253 µM) was 0.894. The relative viability (NCI-H727; first compound 0.8 µM) was 0.575, the relative viability (NCI-H727; first compound 8 µM) was 0.98 and the relative viability (NCI-H2170; first compound 0.08 µM) was 0.797. It also gave a relative viability (NCI-H2170; first compound 0.253 µM) of 0.78, a relative viability (NCI-H2170; first compound 0.8 µM) of 0.706 and a relative viability (NCI-H2170; first compound 2.53 µM) of 0.321. It also gave a relative viability (NCI-H2170; first compound 8 µM) of 0.703, a relative viability (NCI-H3122; first compound 0.08 µM) of 1.1 and a relative viability (NCI-H3122; first compound 0.253 µM) of 1.27. For the same compound, the relative viability (NCI-H3122; first compound 0.8 µM) was 0.971, the relative viability (NCI-H3122; first compound 8 µM) was 0.854 and the relative viability (201T; first compound 0.08 µM) was 0.734. It also gave a relative viability (201T; first compound 0.253 µM) of 0.866, a relative viability (201T; first compound 0.8 µM) of 0.698 and a relative viability (201T; first compound 8 µM) of 0.734. For the same compound, the relative viability (COR-L23; first compound 0.08 µM) was 0.74, the relative viability (COR-L23; first compound 0.253 µM) was 0.886 and the relative viability (COR-L23; first compound 0.8 µM) was 0.767. It also gave a relative viability (COR-L23; first compound 2.53 µM) of 0.676, a relative viability (COR-L23; first compound 8 µM) of 0.701 and a relative viability (NCI-H1437; first compound 0.08 µM) of 0.842. It also gave a relative viability (NCI-H1437; first compound 0.253 µM) of 0.871, a relative viability (NCI-H1437; first compound 0.8 µM) of 0.867 and a relative viability (NCI-H1437; first compound 2.53 µM) of 0.57. It also gave a relative viability (NCI-H1437; first compound 8 µM) of 0.914, a relative viability (ABC-1; first compound 0.08 µM) of 0.498 and a relative viability (ABC-1; first compound 0.253 µM) of 0.587. It also gave a relative viability (ABC-1; first compound 0.8 µM) of 0.479, a relative viability (ABC-1; first compound 2.53 µM) of 0.379 and a relative viability (ABC-1; first compound 8 µM) of 0.35. For the same compound, the relative viability (NCI-H1666; first compound 0.08 µM) was 0.798, the relative viability (NCI-H1666; first compound 0.253 µM) was 0.97 and the relative viability (NCI-H1666; first compound 0.8 µM) was 0.885. The relative viability (NCI-H1666; first compound 2.53 µM) was 0.726, the relative viability (NCI-H1666; first compound 8 µM) was 0.786 and the relative viability (NCI-H838; first compound 0.08 µM) was 0.442. For the same compound, the relative viability (NCI-H838; first compound 0.8 µM) was 0.37, the relative viability (NCI-H838; first compound 2.53 µM) was 0.36 and the relative viability (NCI-H838; first compound 8 µM) was 0.404. For the same compound, the relative viability (HCC-366; first compound 0.08 µM) was 1.06, the relative viability (HCC-366; first compound 0.253 µM) was 1.31 and the relative viability (HCC-366; first compound 0.8 µM) was 0.897. For the same compound, the relative viability (HCC-366; first compound 8 µM) was 0.834, the relative viability (HARA; first compound 0.08 µM) was 0.634 and the relative viability (HARA; first compound 0.253 µM) was 0.587. It also gave a relative viability (HARA; first compound 0.8 µM) of 0.513, a relative viability (HARA; first compound 2.53 µM) of 0.31 and a relative viability (HARA; first compound 8 µM) of 0.441. The relative viability (NCI-H441; first compound 0.08 µM) was 0.512, the relative viability (NCI-H441; first compound 0.253 µM) was 0.713 and the relative viability (NCI-H441; first compound 0.8 µM) was 0.678. The relative viability (NCI-H441; first compound 2.53 µM) was 0.36, the relative viability (NCI-H441; first compound 8 µM) was 0.548 and the relative viability (SW 900; first compound 0.08 µM) was 0.555. For the same compound, the relative viability (SW 900; first compound 0.253 µM) was 0.842, the relative viability (SW 900; first compound 0.8 µM) was 0.441 and the relative viability (SW 900; first compound 2.53 µM) was 0.509. The relative viability (SW 900; first compound 8 µM) was 0.45, the relative viability (BEN; first compound 0.08 µM) was 0.347 and the relative viability (BEN; first compound 0.253 µM) was 0.293. For the same compound, the relative viability (BEN; first compound 0.8 µM) was 0.32, the relative viability (BEN; first compound 8 µM) was 0.288 and the relative viability (LU99A; first compound 0.08 µM) was 0.328. It also gave a relative viability (LU99A; first compound 0.253 µM) of 0.28, a relative viability (LU99A; first compound 0.8 µM) of 0.273 and a relative viability (LU99A; first compound 2.53 µM) of 0.252. For the same compound, the relative viability (LU99A; first compound 8 µM) was 0.325, the relative viability (NCI-H661; first compound 0.08 µM) was 0.697 and the relative viability (NCI-H661; first compound 0.253 µM) was 0.71. For the same compound, the relative viability (NCI-H661; first compound 0.8 µM) was 0.72, the relative viability (NCI-H661; first compound 2.53 µM) was 0.635 and the relative viability (NCI-H661; first compound 8 µM) was 0.736. The relative viability (CAL-12T; first compound 0.08 µM) was 0.862, the relative viability (CAL-12T; first compound 0.253 µM) was 1.06 and the relative viability (CAL-12T; first compound 0.8 µM) was 0.697. The relative viability (CAL-12T; first compound 2.53 µM) was 0.592 and the relative viability (CAL-12T; first compound 8 µM) was 0.63.

— the supplement of paper PMC10307832
